Values after ≈ are worked out from the molar mass of the structure shown. Where only a bound is given, the exact number is not on record here.

104 molecules from PubChem BioAssay AID1996 can be followed below.

For this data set the following is noted: buffer; pH 7.4; 200.0 µM.
As a reminder, the solubility (kinetic) is solubility judged after dilution from a stock solution rather than from solid. `CC1=C/C(=N\OS(=O)(=O)c2ccccc2)C=CC1=O` showed a kinetic solubility of 7.9 µg/mL (≈ 28.5 µM).
With `O=C(CN1CCCC1)Nc1cc(F)ccc1F`, the kinetic solubility turned out to be 35.1 µg/mL (≈ 146 µM).
Under `Nc1ccc(-n2cc(-c3ccccc3)[nH]c2=S)cc1` stands 12.6 µg/mL (≈ 47.1 µM).
As for `CC1CCCC(NC(=O)CNC(=O)c2cccs2)C1C` (centres undefined), the figure is greater than 44.2 µg/mL; as for `O=S(=O)(NC1CC1)c1ccc(Cl)cc1`, greater than 34.8 µg/mL.
As for `C/C(=N/O)c1ccc2ccc3ccccc3c2c1`, the figure is 0.6 µg/mL (≈ 2.55 µM); as for `COc1ccc(N2CCN(c3nccs3)CC2)cc1`, greater than 41.3 µg/mL; as for `O=C(NC(=O)c1ccc(C(F)(F)F)cc1)Nc1ccc(-c2cnco2)cc1`, 2.8 µg/mL (≈ 7.46 µM).
For the molecule `COc1cc(CNC(C)C23CC4CC(CC(C4)C2)C3)cc(OC)c1OC.Cl` (centres undefined), the solubility (kinetic) was greater than 59.4 µg/mL.
Under `CC(=O)Nc1cc(Br)ccc1O` stands 32.6 µg/mL (≈ 142 µM); under `CCC(CC)C(=O)Nc1nnc(SCC(=O)NC(C)(C)C)s1`, greater than 51.7 µg/mL.
As for `CC(C(=O)O)N1C(=O)C2C3c4ccccc4C(c4ccccc43)[C@@H]2C1=O` (some centres undefined), the figure is greater than 52.1 µg/mL; as for `CCOC(=O)C1CCC(CNCc2ccccc2C)CC1.Cl` (centres undefined), 44.3 µg/mL; as for `Cc1ccc(NC(=O)CN2CCN(C(=O)c3ccco3)CC2)cc1`, 47.8 µg/mL (≈ 146 µM).
Molecule `Cc1ccc(NC(=O)N2C3CCCC2CC(NC(=O)C2CC2)C3)cc1` (centres undefined) yielded a kinetic solubility of 9.4 µg/mL (≈ 27.5 µM). This solubility kinetic lies about 5.1-fold lower than the previous one.
`CC(=O)O.CC1=CC(C)C(/C=N/N=C(N)N)C(C)C1` (centres undefined) registered a solubility (kinetic) greater than 40.3 µg/mL.
As to `O=C1CC(NCCc2ccccc2)C(=O)N1CCc1ccccc1` (centres undefined), the solubility (kinetic) is 46.1 µg/mL (≈ 143 µM).
As for `CN1C(=O)c2ccc(NC(=O)c3ccc(Cl)cc3Cl)cc2C1=O`, the figure is 2.1 µg/mL (≈ 6.01 µM); as for `O=C(COC(=O)/C=C/c1cccc([N+](=O)[O-])c1)NCc1ccco1`, 18.5 µg/mL (≈ 56 µM).
In the case of `O=C(NC1(C(F)(F)F)NC(=O)N(C2CCCCC2)C1=O)c1ccco1` (centres undefined), the kinetic solubility turned out to be 50.2 µg/mL (≈ 140 µM).
Consider `O=C(COC(=O)c1ccc(Cl)cc1[N+](=O)[O-])NCc1ccco1`, for which the solubility (kinetic) is greater than 50.8 µg/mL.
In turn, `CC(=O)c1cccc(NC(=O)CCCSc2ccccc2)c1` showed a kinetic solubility of 2.9 µg/mL (≈ 9.25 µM).
As for `CCC1CN(C(=O)NCc2ccccc2)c2cc(C)ccc2O1` (centres undefined), the figure is 3.8 µg/mL (≈ 12.2 µM); as for `COC(=O)/C=C/c1c(C)nc(NCc2ccccc2)nc1Cl`, greater than 47.7 µg/mL; as for `Cc1cc(N2CC(C)OC(C)C2)nc(C(C)C)n1` (centres undefined), 21.9 µg/mL (≈ 87.8 µM).
Molecule `O=C1N=c2ccccc2=C1c1sc(=S)n(-c2ccc(O)cc2)c1O` came in with a solubility (kinetic) of 0.8 µg/mL (≈ 2.26 µM).
Under `Cc1ccc(C(=O)N2CCC(Cc3ccccc3)CC2)cc1[N+](=O)[O-]` stands 10.3 µg/mL (≈ 30.4 µM); under `COc1ccc(C(=O)Nc2ccc(S(=O)(=O)N3CCOCC3)cc2)cc1`, 2.9 µg/mL (≈ 7.7 µM).
Under `Nc1ccc(N2CCOCC2)c(S(=O)(=O)Nc2ccccc2Cl)c1` stands 31.7 µg/mL (≈ 86.2 µM); under `O=C(NCCN1CCN(c2ccccc2)CC1)Nc1ccc(Cl)cc1`, 3.7 µg/mL (≈ 10.3 µM); under `O=C(Nc1cc(S(=O)(=O)N2CCCCC2)ccc1Cl)C1COc2ccccc2O1` (centres undefined), 5.4 µg/mL (≈ 12.4 µM).
Molecule `CC(=O)c1ccccc1Oc1ncnc(N)c1[N+](=O)[O-]` showed a kinetic solubility greater than 41.1 µg/mL.
Under `Cc1ccc(NC(=O)c2ccc(NC(=O)C3CCCCC3C(=O)O)cc2)cc1` (centres undefined) stands greater than 57.1 µg/mL; under `CC(=O)Nc1ccc(SCC(=O)Nc2ccc3c(c2)OCCO3)cc1`, greater than 53.8 µg/mL.
As for `Nc1nnc(SCC(=O)Nc2cccnc2Cl)s1`, the kinetic solubility was greater than 45.3 µg/mL.
As for `Nc1ncnc2c1ncn2C1OC(CO)C(O)C1O` (centres undefined), the kinetic solubility is greater than 40.1 µg/mL.
Under `CCCCCCCCC1CC(C(=O)Nc2ccccc2)C(=O)O1` (centres undefined) stands less than 0.7 µg/mL.
`Cc1ccc(C)c(NS(=O)(=O)c2csc(C(N)=O)c2)c1`: the solubility (kinetic) was found to be 36.3 µg/mL (≈ 117 µM).
As for `Fc1ccc(-c2csc(N3CCOCC3)n2)cc1`, the figure is 2.1 µg/mL (≈ 7.94 µM).
As for `COC(=O)c1sccc1NC(=O)Nc1cc(C)cc(C)c1`, the figure is 2.7 µg/mL (≈ 8.87 µM).
As for `Cc1ccccc1C1NC(=O)c2ccccc2O1` (centres undefined), the figure is 18.3 µg/mL (≈ 76.5 µM); as for `Cc1noc(C(=O)Nc2cc(Cl)ccc2O)c1Cl`, 1.7 µg/mL (≈ 5.92 µM); as for `COc1ccc(C(=O)Nc2ccc(N3CCN(C)CC3)cc2)cc1`, 42.7 µg/mL (≈ 131 µM).
As to `CN1CCSc2ccc(C(=O)Nc3cccc(F)c3)cc21`, the solubility (kinetic) was 1.4 µg/mL (≈ 4.63 µM).
Under `CC(OC(=O)c1ccccc1)C(=O)NCCC1=CCCCC1` (centres undefined) stands greater than 45.2 µg/mL; under `CCN(C(=O)C1CCCO1)c1ccccc1` (centres undefined), 25.2 µg/mL (≈ 115 µM); under `COCCN(C)Cc1nc(C(c2ccccc2)c2ccccc2)no1`, 37.7 µg/mL (≈ 112 µM).
Under `N#C/C(=C(\O)c1cc(Cl)sc1Cl)c1nc2ccccc2[nH]1` stands less than 0.2 µg/mL; under `Br.C=CCn1c(=N)n(CC(=O)c2ccccc2)c2ccccc21`, greater than 55.8 µg/mL; under `CCOc1ccc(C(=O)NNC(=O)CN2C(=O)C3CC=CCC3C2=O)cc1OC` (centres undefined), greater than 60.2 µg/mL.
As for `Cn1cccc1C(=O)OCC(=O)NCCc1ccc(S(N)(=O)=O)cc1`, the figure is greater than 54.8 µg/mL; as for `CC(NC(=O)COC(=O)C1CC1C)c1cccc(Cl)c1` (centres undefined), greater than 44.4 µg/mL.
Turning to `Cn1cccc1C(=O)NC(=O)COC(=O)c1ccc(S(C)(=O)=O)c([N+](=O)[O-])c1`, the kinetic solubility came to 14.7 µg/mL (≈ 35.9 µM).
The molecule `CCOCCCNC(=O)c1ccc(NC(=O)C2CCCO2)cc1` (centres undefined) gave a solubility (kinetic) greater than 48.1 µg/mL.
For `O=C(/C=C/c1ccc(F)cc1)N1CCc2ccccc2C1`, the solubility (kinetic) worked out at 12.5 µg/mL (≈ 44.4 µM).
Under `O=C(CN1CCCCCC1)Nc1c(Cl)cc(Cl)cc1Cl` stands 42.1 µg/mL (≈ 125 µM).
As for `CC(=O)c1cccc(OCC(O)CNCC2CCCCC2)c1` (centres undefined), the figure is greater than 45.8 µg/mL; as for `O=C(CCc1ccccc1)NCCc1ccc(F)cc1`, 37.4 µg/mL (≈ 138 µM).
For the molecule `CC(=O)NS(=O)(=O)c1ccc(NC(=O)c2cccc3ccccc23)cc1`, the kinetic solubility came out at 53.9 µg/mL (≈ 146 µM).
`O=S(=O)(c1ccccc1)N1CCc2ccccc2C1` had a solubility (kinetic) of less than 0.6 µg/mL.
As for `Cc1ccc(S(=O)(=O)N2CCc3ccccc3C2)cc1`, the figure is less than 0.6 µg/mL; as for `Cc1ccc(C)c(NC(=O)CCC(=O)N/N=C/c2cccnc2)c1`, greater than 48.7 µg/mL; as for `CCOc1cccc(/C=N/NC(=O)c2cccnc2)c1O`, greater than 42.8 µg/mL.
As for `O=C(CCCc1ccccc1)NCc1ccccc1Cl`, the figure is 32.9 µg/mL (≈ 114 µM); as for `COc1ccc(CC(=O)OCC(=O)NC2CCCCC2)cc1`, greater than 45.8 µg/mL; as for `CNc1nc(=S)[nH]c2ccccc12`, greater than 28.7 µg/mL.
As for `CCC(=O)N(CCC1(c2ccccc2OC)CCOC(C(C)C)C1)Cc1ccco1` (centres undefined), the figure is 21.4 µg/mL (≈ 51.7 µM); as for `COc1ccc(C(=O)O/N=C(\N)Cc2cccs2)cc1OC`, greater than 48.1 µg/mL; as for `Oc1c(Cl)cc(Cl)cc1C1Nc2ccccc2-n2cccc21` (centres undefined), less than 0.4 µg/mL.
With `COC(=O)c1ccccc1NC(=O)NCCc1ccccc1OC.Cl`, the solubility (kinetic) was found to be 6.3 µg/mL.
Turning to `O=C(Nc1cccnc1)c1cccc(S(=O)(=O)N2CCCCC2)c1`, the solubility (kinetic) is greater than 51.8 µg/mL.
Under `CCN(Cc1nc(-c2ccc(C)cc2)no1)C(=O)c1ccco1` stands 38.9 µg/mL (≈ 125 µM); under `COc1cc(C)c(CN2CCSCC2)cc1C`, 12.1 µg/mL (≈ 48.1 µM).
As for `COc1ccc(NC(=O)CC(C)CC(=O)NCc2ccc(F)cc2)c(OC)c1` (centres undefined), the figure is 6.8 µg/mL (≈ 17.5 µM); as for `Cc1ccc(F)c(N=Cc2c(O)c3ccccc3oc2=O)c1`, 1.8 µg/mL (≈ 6.05 µM); as for `CN(C(=O)c1cc2ccccc2cc1O)C1CCCCC1`, 40.6 µg/mL (≈ 143 µM).
Under `CSc1ccc(S(=O)(=O)NC2CC2)cc1` stands greater than 36.5 µg/mL; under `COc1ccc(C(=O)N2CCCc3ccccc32)cc1Br`, 26.4 µg/mL (≈ 76.3 µM).
In turn, `Cc1cc(Nc2ccccc2)n(-c2ccc(C(=O)O)cc2)n1` yielded a solubility (kinetic) greater than 44 µg/mL.
As for `NC(=NC(=O)c1ccc(OCC(F)(F)F)nc1)c1ccccc1`, the figure is 6.6 µg/mL (≈ 20.4 µM).
As for `Cn1c(S(=O)(=O)O)nc2ccccc21`, the figure is 31.5 µg/mL (≈ 148 µM); as for `O=[N+]([O-])c1ccc(NCCN2CCOCC2)c([N+](=O)[O-])c1`, greater than 44.4 µg/mL; as for `O=c1[nH]c(SCc2c(Cl)cccc2Cl)nc2ccccc12`, less than 0.4 µg/mL.
As for `O=C(COC(=O)CCC(=O)c1ccc(F)cc1)NCc1ccco1`, the figure is greater than 50 µg/mL; as for `Cc1ccc(NC(=O)N2CCCCCC2)c(C)c1`, greater than 37 µg/mL.
`Nc1nc(NCc2ccc(Cl)cc2)nc(NCCO)c1[N+](=O)[O-]`: the kinetic solubility was determined as 45.9 µg/mL (≈ 135 µM).
In turn, `O=C1c2cccc3c([N+](=O)[O-])ccc(c23)C(=O)N1CCc1ccccn1` yielded a kinetic solubility of 0.4 µg/mL (≈ 1.15 µM).
As for `CCN1CCN(c2ncnc3sc4c(c23)CCC(C)C4)CC1` (centres undefined), the solubility (kinetic) came to 26.4 µg/mL (≈ 83.4 µM).
As for `COc1cccc(NC(=O)c2cc3ccccc3oc2=O)c1`, the figure is less than 0.6 µg/mL; as for `CC(C)(CO)NC(=O)C12CC3CC(CC(Br)(C3)C1)C2`, greater than 49.5 µg/mL.
Under `COc1ccc(NC(=O)CSc2ccc(NC(C)=O)cc2)cc1S(=O)(=O)N1CCOCC1` stands greater than 71.9 µg/mL.
As for `O=C(COC(=O)c1ccccc1Cl)NC1CCCCCC1`, the figure is 29.5 µg/mL (≈ 95.2 µM); as for `COc1ccc(NS(=O)(=O)c2cc(N)ccc2N2CCOCC2)cc1`, 13.2 µg/mL (≈ 36.3 µM); as for `COc1ccc(C2(O)C(=O)Nc3ccc(C)cc32)cc1` (centres undefined), greater than 40.4 µg/mL.
For the molecule `COc1ccc(S(=O)(=O)NC2CCCCCC2)cc1C(N)=O`, the solubility (kinetic) came to 11.9 µg/mL (≈ 36.5 µM).
As for `COc1ccc(N/C(N)=N/c2nc(C)cc(=O)[nH]2)cc1`, the figure is 6.8 µg/mL (≈ 24.9 µM); as for `CC1(C)CC(=O)N(c2ccc(C#N)cc2)C(=O)C1`, greater than 36.3 µg/mL.
In the case of `CCc1ccc2c(CN3CCOCC3)cc(=O)oc2c1`, the kinetic solubility is greater than 41 µg/mL.
With `NC(=O)c1cnccn1`, the solubility (kinetic) was greater than 18.5 µg/mL.
`CCc1nc2oc3ccccc3c(=O)c2cc1C(=O)OC` registered a solubility (kinetic) of 4.2 µg/mL (≈ 14.8 µM).
As for `CC(CC(=O)Nc1ccc2c(c1)OCO2)c1ccccc1` (centres undefined), the kinetic solubility turned out to be 38.5 µg/mL (≈ 136 µM).
Regarding `NS(=O)(=O)c1ccc(O)c(NC(=O)c2ccc([N+](=O)[O-])o2)c1`, the kinetic solubility was greater than 49.1 µg/mL.
As for `O=C(Nc1ccccc1)OCc1cncs1`, the figure is greater than 35.1 µg/mL; as for `O=C(c1ccc([N+](=O)[O-])o1)N1CCN(Cc2ccccc2)CC1`, 9.2 µg/mL (≈ 29.2 µM).
